These compounds were tested against T1, Androgen Receptor (AR) in the LNCaP prostate carcinoma cell line (Homo sapiens, UniProt P10275, T878A) (assay: LNCaP Androgen Receptor Down-Regulation Cell Assay (immunofluorescence end point)). Details: LNCaP cells, compound incubation 20-22 hours, concentration giving 50% reduction of the AR signal.
T1 construct: cell based immuno-fluorescence assay using the LNCaP prostate epithelial cell line; host or cells: LNCaP clone FGC
T1 sequence (P10275 1-920 T878A): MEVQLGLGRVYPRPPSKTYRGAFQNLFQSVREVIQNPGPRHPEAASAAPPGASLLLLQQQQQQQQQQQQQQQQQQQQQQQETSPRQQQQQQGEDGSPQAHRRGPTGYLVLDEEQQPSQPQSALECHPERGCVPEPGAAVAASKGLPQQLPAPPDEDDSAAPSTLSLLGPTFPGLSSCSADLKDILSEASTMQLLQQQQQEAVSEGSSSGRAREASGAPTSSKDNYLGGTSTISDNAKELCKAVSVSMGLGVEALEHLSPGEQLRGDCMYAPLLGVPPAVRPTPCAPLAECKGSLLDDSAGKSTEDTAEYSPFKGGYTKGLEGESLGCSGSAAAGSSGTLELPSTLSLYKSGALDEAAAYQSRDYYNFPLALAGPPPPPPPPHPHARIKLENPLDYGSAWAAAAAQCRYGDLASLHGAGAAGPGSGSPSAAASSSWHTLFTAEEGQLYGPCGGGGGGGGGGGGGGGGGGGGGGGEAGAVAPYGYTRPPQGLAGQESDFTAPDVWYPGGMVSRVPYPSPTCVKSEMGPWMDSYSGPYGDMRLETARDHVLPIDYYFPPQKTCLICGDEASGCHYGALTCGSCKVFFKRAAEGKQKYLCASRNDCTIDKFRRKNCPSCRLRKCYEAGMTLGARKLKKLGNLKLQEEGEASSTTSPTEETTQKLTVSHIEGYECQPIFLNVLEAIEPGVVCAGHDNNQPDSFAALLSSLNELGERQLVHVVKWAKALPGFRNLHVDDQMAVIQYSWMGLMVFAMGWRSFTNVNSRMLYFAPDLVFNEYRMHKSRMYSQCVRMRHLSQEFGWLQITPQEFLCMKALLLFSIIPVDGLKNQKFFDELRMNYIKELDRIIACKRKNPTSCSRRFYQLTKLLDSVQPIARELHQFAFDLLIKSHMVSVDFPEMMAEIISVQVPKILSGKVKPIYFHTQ
Format: cell-based
Method in brief: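 LNCaP cells (6.5×10^3/well) in phenol-red-free RPMI with 5% charcoal-stripped FBS were treated with compound dilutions for 20–22 h at 37 °C. They were then formaldehyde-fixed, permeabilised, blocked and immunostained for AR with monoclonal antibody AR441.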
An IC50 of 0.25 µM was found for `CC(=O)N1CCN(CCOc2ccc(C3CCN(C4=Nn5c(nnc5C(F)(F)F)CC4)CC3)cc2)C[C@H]1C` [Example 51, 6-[4-(4-{2-[(3R)-4-acetyl-3-methylpiperazin-1-yl]ethoxy}phenyl)piperidin-1-yl]-3-(trifluoromethyl)-7,8-dihydro[1,2,4]triazolo[4,3-b]pyridazine] in this work. An IC50 of 1.8 µM was found for `CC(=O)N1CCN(CCOc2ccc(C3CCN(C4=Nn5c(nnc5C(F)(F)F)CC4)CC3)cc2)CC1` [Example 5.1, 6-(4-{4-[2-(4-acetylpiperazin-1-yl)ethoxy]phenyl}piperidin-1-yl)-3-(trifluoromethyl)-7,8-dihydro[1,2,4]triazolo[4,3-b]pyridazine] in this work. An IC50 of 1.2 µM was found for `CC(=O)N1CCN(CCCOc2ccc(C3CCN(C4=Nn5c(nnc5C(F)(F)F)CC4)CC3)cc2)CC1` [Example 4.1, 6-[4-[4-[3-(4-acetylpiperazin-1-yl)propoxy]phenyl]piperidin-1-yl]-3-(trifluoromethyl)-7,8-dihydro[1,2,4]triazolo[4,3-b]pyridazine] in this work. An IC50 of 1.7 µM was found for `CN1CCN(CCOc2ccc(C3CCN(C4=Nn5c(nnc5C(F)(F)F)CC4)CC3)cc2)CC1=O` [Example 37, 1-methyl-4-[2-(4-{1-[3-(trifluoromethyl)-7,8-dihydro[1,2,4]triazolo[4,3-b]pyridazin-6-yl]piperidin-4-yl}phenoxy)ethyl]piperazin-2-one] in this work.
